Data taken from ChEMBL document CHEMBL6134814, “Asiatic acid and its derivatives: Pharmacological insights and applications” (Eur J Med Chem, 2025).

Experiments:
HCT-116 [1] = assay: Cytotoxicity against human HCT-116 cells assessed as reduction in cell growth incubated for 72 hrs by MTT assay; type: functional, cell-based; conditions: HCT-116, 72 h
A2780 [2] = assay: Cytotoxicity against human A2780 cells assessed as reduction in cell growth incubated for 72 hrs by MTT assay; type: functional, cell-based; conditions: A2780, 72 h
HepG2 [3] = assay: Cytotoxicity against human HepG2 cells assessed as reduction in cell growth incubated for 72 hrs by MTT assay; type: functional, cell-based; conditions: HepG2, 72 h
HL-60 = assay: Cytotoxicity against human HL-60 cells assessed as reduction in cell growth incubated for 72 hrs by MTT assay; type: functional, cell-based; conditions: HL-60, 72 h
MCF7 [4] = assay: Cytotoxicity against human MCF7 cells assessed as reduction in cell growth incubated for 72 hrs by MTT assay; type: functional, cell-based; conditions: MCF7, 72 h
[5] = Inhibition of alpha-glucosidase (unknown origin); parameters: species or system Homo sapiens
K562 = assay: Cytotoxicity against human K562 cells assessed as reduction in cell viability incubated for 24 hrs by MTT assay; type: functional, cell-based; conditions: K562, 24 h
HCT-116 [6] = assay: Cytotoxicity against human HCT-116 cells assessed as reduction in cell viability incubated fro 48 hrs by MTT assay; type: functional, cell-based; conditions: HCT-116, 48 h
[7] = Cytotoxicity against human SPCA1 cells assessed as reduction in cell viability incubated fro 48 hrs by MTT assay; type: functional, cell-based; conditions: SPCA1, 48 h
SK-OV-3 [8] = assay: Cytotoxicity against human SK-OV-3 cells assessed as reduction in cell viability incubated fro 48 hrs by MTT assay; type: functional, cell-based; conditions: SK-OV-3, 48 h
SGC-7901 [9] = assay: Antiproliferative activity against human SGC-7901 cells assessed as reduction in cell viability incubated for 72 hrs by MTT assay; type: functional, cell-based; conditions: SGC-7901, 72 h
HepG2 [10] = assay: Antiproliferative activity against human HepG2 cells assessed as reduction in cell viability incubated for 72 hrs by MTT assay; type: functional, cell-based; conditions: HepG2, 72 h
HT-29 [11] = assay: Antiproliferative activity against human HT-29 cells assessed as reduction in cell viability incubated for 72 hrs by MTT assay; type: functional, cell-based; conditions: HT-29, 72 h
HeLa = assay: Antiproliferative activity against human HeLa cells; type: functional, cell-based
HepG2 [12] = assay: Antiproliferative activity against human HepG2 cells; type: functional, cell-based
BGC-823 = assay: Antiproliferative activity against human BGC-823 cells; type: functional, cell-based
SK-OV-3 [13] = assay: Anticancer activity against human SK-OV-3 cells assessed as reduction in cell growth at 40 microg/ml incubated for 72 hrs by MTT assay relative to control; type: functional; parameters: scale not given: the % may be the effect or the level left; conditions: dose 40 µg/ml
OVCAR-3 = assay: Anticancer activity against human OVCAR-3 cells assessed as reduction in cell growth at 40 microg/ml incubated for 72 hrs by MTT assay relative to control; type: functional; parameters: scale not given: the % may be the effect or the level left; conditions: dose 40 µg/ml
A549 = assay: Antiproliferative activity against human A549 cells assessed as reduction in cell viability incubated for 72 hrs by CCK-8 assay; type: functional, cell-based; conditions: A549, 72 h
[14] = Antiproliferative activity against human PC9 Gefitinib-resistant (GR) cell assessed as reduction in cell viability incubated for 72 hrs by CCK-8 assay; type: functional, cell-based
A-375 [15] = assay: Cytotoxicity against human A-375 cells assessed as reduction in cell growth incubated for 72 hrs by SRB assay; type: functional, cell-based; conditions: A-375, 72 h
HT-29 [16] = assay: Cytotoxicity against human HT-29 cells assessed as reduction in cell growth incubated for 72 hrs by SRB assay; type: functional, cell-based; conditions: HT-29, 72 h
MCF7 [17] = assay: Cytotoxicity against human MCF7 cells assessed as reduction in cell growth incubated for 72 hrs by SRB assay; type: functional, cell-based; conditions: MCF7, 72 h
A2780 [18] = assay: Cytotoxicity against human A2780 cells assessed as reduction in cell growth incubated for 72 hrs by SRB assay; type: functional, cell-based; conditions: A2780, 72 h
Hepatocyte [19] = assay: Hepatoprotective activity against glucosamine-induced liver injury in rat hepatocytes assessed as at 50 uM relative to control; type: functional
Carbonic anhydrase 1 = Carbonic anhydrase 1 (Homo sapiens, UniProt P00915); assay: Binding affinity to human carbonic anhydrase I assessed as inhibition constant
Sequence of Carbonic anhydrase 1 (P00915 whole entry): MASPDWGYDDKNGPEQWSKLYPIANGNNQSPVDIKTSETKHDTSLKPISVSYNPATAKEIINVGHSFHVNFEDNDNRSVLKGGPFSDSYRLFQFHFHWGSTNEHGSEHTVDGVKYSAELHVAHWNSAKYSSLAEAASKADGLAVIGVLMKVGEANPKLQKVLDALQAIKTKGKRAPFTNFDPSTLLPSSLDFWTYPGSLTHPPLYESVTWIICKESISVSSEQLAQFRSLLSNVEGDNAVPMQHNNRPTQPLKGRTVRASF

Carbonic anhydrase 2 = Carbonic anhydrase 2 (Homo sapiens, UniProt P00918); assay: Binding affinity to human carbonic anhydrase 2 assessed as inhibition constant
[20] = target: Carbonic anhydrase 5A, mitochondrial (Homo sapiens, UniProt P35218); assay: Binding affinity to human carbonic anhydrase 5A assessed as inhibition constant
Sequence of Carbonic anhydrase 5A, mitochondrial (P35218 whole entry): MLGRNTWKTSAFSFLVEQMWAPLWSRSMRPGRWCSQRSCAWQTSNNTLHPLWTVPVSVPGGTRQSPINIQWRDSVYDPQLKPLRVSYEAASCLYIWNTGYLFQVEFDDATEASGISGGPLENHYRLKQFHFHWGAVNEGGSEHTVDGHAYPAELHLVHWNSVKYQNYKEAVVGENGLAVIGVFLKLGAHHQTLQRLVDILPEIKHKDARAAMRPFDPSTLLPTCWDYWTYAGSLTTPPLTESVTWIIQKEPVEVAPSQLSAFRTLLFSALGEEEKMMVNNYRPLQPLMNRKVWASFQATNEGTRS

Carbonic anhydrase 9 = Carbonic anhydrase 9 (Homo sapiens, UniProt Q16790); assay: Binding affinity to human carbonic anhydrase 9 assessed as inhibition constant
B16-F10 = assay: Anticancer activity against mouse B16-F10 cells assessed as reduction in cell growth incubated for 72 hrs by CCK-8 assay; type: functional, cell-based; conditions: B16-F10, 72 h
Jurkat = assay: Antiproliferative activity against human Jurkat cells assessed as reduction in cell growth incubated for 72 hrs by XTT assay; type: functional, cell-based
PC-3 = assay: Antiproliferative activity against human PC-3 cells assessed as reduction in cell growth incubated for 72 hrs by MTT assay; type: functional, cell-based; conditions: PC-3, 72 h
MIA PaCa-2 = assay: Antiproliferative activity against human MIA PaCa-2 cells assessed as reduction in cell growth incubated for 72 hrs by MTT assay; type: functional, cell-based; conditions: MIA PaCa-2, 72 h
A-375 [21] = assay: Antiproliferative activity against human A-375 cells assessed as reduction in cell growth incubated for 72 hrs by MTT assay; type: functional, cell-based; conditions: A-375, 72 h
HepG2 [22] = assay: Antiproliferative activity against human HepG2 cells assessed as reduction in cell viability incubated for 48 hrs by MTT assay; type: functional, cell-based; conditions: HepG2, 48 h
SGC-7901 [23] = assay: Antiproliferative activity against human SGC-7901 cells assessed as reduction in cell viability incubated for 48 hrs by MTT assay; type: functional, cell-based; conditions: SGC-7901, 48 h
Hepatocyte [24] = assay: Hepatoprotective activity against CCl4-induced liver injury in male Wistar rat hepatocytes assessed as at 50 uM relative to control; type: functional
KB = assay: Cytotoxicity against human KB cells assessed as reduction in cell viability incubated for 48 hrs by MTT assay; type: functional, cell-based
HepG2 [25] = assay: Cytotoxicity against human HepG2 cells assessed as reduction in cell viability incubated for 48 hrs by MTT assay; type: functional, cell-based; conditions: HepG2, 48 h
SK-LU-1 = assay: Cytotoxicity against human SK-LU-1 cells assessed as reduction in cell viability incubated for 48 hrs by MTT assay; type: functional, cell-based; conditions: SK-LU-1, 48 h

COC(=O)[C@@]1(C)[C@@H]2CC[C@]3(C)[C@H](CC=C4[C@@H]5[C@@H](C)[C@H](C)CC[C@]5(C(=O)Nc5ccccc5)CC[C@]43C)[C@@]2(C)C[C@@H](OC)[C@@H]1OC(C)=O
IC50 (HCT-116 [1]): 1.08 µM
IC50 (A2780 [2]): 1.28 µM
IC50 (HepG2 [3]): 1.43 µM
IC50 (HL-60): 0.48 µM
IC50 (MCF7 [4]): 3.99 µM

CC(N)C(=O)N1CCN(C(=O)[C@]23CC[C@@H](C)[C@H](C)[C@H]2C2=CC[C@@H]4[C@@]5(C)C[C@@H](O)[C@H](O)[C@@](C)(CO)[C@@H]5CC[C@@]4(C)[C@]2(C)CC3)CC1 (stereo not given in full)
IC50 [5]: 1190 µM

C[C@H]1[C@H](C)CC[C@]2(C(=O)OCc3ccccc3)CC[C@]3(C)C(=CC[C@@H]4[C@@]5(C)C[C@@H](O)[C@H](O)[C@@](C)(CO)[C@@H]5CC[C@]43C)[C@H]12
IC50 (K562): 4.1 µM

CCOP(=O)(OCC)C(NC(=O)[C@]12CC[C@@H](C)[C@H](C)[C@H]1C1=CC[C@@H]3[C@@]4(C)C[C@@H](OC(C)=O)[C@H](OC(C)=O)[C@@](C)(COC(C)=O)[C@@H]4CC[C@@]3(C)[C@]1(C)CC2)c1ccccc1Cl (stereo not given in full)
IC50 (HCT-116 [6]): 26.1 µM
IC50 [7]: 15 µM
IC50 (SK-OV-3 [8]): 27.5 µM

CC(=O)OC[C@@]1(C)[C@@H]2CC[C@]3(C)[C@H](C(=O)C=C4[C@@H]5[C@@H](C)[C@H](C)CC[C@]5(C(=O)Nc5ccccc5CO)CC[C@]43C)[C@@]2(C)C[C@@H](OC(C)=O)[C@@H]1OC(C)=O
IC50 (SGC-7901 [9]): 3.2 µM
IC50 (HepG2 [10]): 2.2 µM

CC(=O)OC[C@@]1(C)[C@@H]2CC[C@]3(C)[C@H](CC=C4[C@@H]5[C@@H](C)[C@H](C)CC[C@]5(C(=O)NO)CC[C@]43C)[C@@]2(C)C[C@@H](OC(C)=O)[C@@H]1OC(C)=O
IC50 (HT-29 [11]): 4.12 µM

CC(=O)OC[C@@]1(C)[C@@H]2CC[C@]3(C)[C@H](C(=O)C=C4[C@@H]5[C@@H](C)[C@H](C)CC[C@]5(C(=O)OCCO)CC[C@]43C)[C@@]2(C)C[C@@H](OC(C)=O)[C@@H]1OC(C)=O
IC50 (HeLa): 4.78 µM
IC50 (HepG2 [12]): 6.84 µM
IC50 (BGC-823): 8.75 µM

C[C@H]1[C@H](C)CC[C@]2(C(=O)O)CC[C@]3(C)C(=CC[C@@H]4[C@@]5(C)C[C@@H](O)[C@H](O)[C@@](C)(CO)[C@@H]5CC[C@]43C)[C@H]12 [ASIATIC ACID]
Activity (SK-OV-3 [13]): 50%
Activity (OVCAR-3): 50%

C[C@H]1[C@H](C)CC[C@]2(C(=O)O)CC[C@]3(C)C(=CC[C@@H]4[C@@]5(C)C[C@@H](OC(=O)CCC(=O)O)[C@@H]6OC(C)(C)OC[C@@]6(C)[C@@H]5CC[C@]43C)[C@H]12
IC50 (A549): 26 µM
IC50 [14]: 25.6 µM

CC(=O)O[C@@H]1C[C@@]2(C)[C@@H](CC[C@]3(C)[C@@H]2CC=C2[C@@H]4[C@@H](C)[C@H](C)CC[C@]4(C(=O)N4CCCN(C(=O)c5ccccc5-c5c6ccc(=[N+](CCO)CCO)cc-6oc6cc(N(CCO)CCO)ccc56)CCC4)CC[C@]23C)[C@](C)(OC(C)=O)[C@H]1OC(C)=O
IC50 (A-375 [15]): 0.0074 µM
IC50 (HT-29 [16]): 0.012 µM
IC50 (MCF7 [17]): 0.017 µM
IC50 (A2780 [18]): 0.0019 µM

COC(=O)[C@]12CC[C@@H](C)[C@H](C)[C@H]1C1=CC[C@@H]3[C@@]4(C)C[C@@H](OC(C)=O)C(=O)[C@@](C)(CC(=O)O)[C@@H]4CC[C@@]3(C)[C@]1(C)CC2
Activity (Hepatocyte [19]): 66.4%

C[C@H]1[C@H](C)CC[C@]2(C(=O)Nc3ccccc3)CC[C@]3(C)C(=CC[C@@H]4[C@@]5(C)C[C@@H](OS(N)(=O)=O)[C@H](OS(N)(=O)=O)[C@@](C)(COS(N)(=O)=O)[C@@H]5CC[C@]43C)[C@H]12
Ki (Carbonic anhydrase 1): 5.23 µM
Ki (Carbonic anhydrase 2): 0.298 µM
Ki [20]: 0.0362 µM
Ki (Carbonic anhydrase 9): 0.0258 µM

COC(=O)C1CCCN1C(=O)[C@]12CC[C@@H](C)[C@H](C)[C@H]1C1=CC[C@@H]3[C@@]4(C)C[C@@H](OC(C)=O)[C@H](OC(C)=O)[C@@](C)(COC(C)=O)[C@@H]4CC[C@@]3(C)[C@]1(C)CC2 (stereo not given in full)
IC50 (B16-F10): 4.2 µM

COC(=O)[C@]12CC[C@@H](C)[C@H](C)[C@H]1C1=CC(=O)[C@@H]3[C@@]4(C)C(C=O)=C[C@@](C)(COS(C)(=O)=O)[C@@H]4CC[C@@]3(C)[C@]1(C)CC2
IC50 (Jurkat): 0.11 µM
IC50 (PC-3): 0.42 µM
IC50 (MIA PaCa-2): 0.46 µM
IC50 (A-375 [21]): 0.25 µM

COc1cccc(NC(=O)[C@]23CC[C@@H](C)[C@H](C)[C@H]2C2=CC[C@@H]4[C@@]5(C)CC6=NCCN=C6[C@@](C)(C=O)[C@@H]5CC[C@@]4(C)[C@]2(C)CC3)c1
IC50 (HepG2 [22]): 4.18 µM
IC50 (SGC-7901 [23]): 3.96 µM

C[C@H]1[C@H](C)CC[C@]2(C(=O)O)CC[C@]3(C)C(=CC[C@@H]4[C@@]5(C)CC[C@H](O)[C@@](C)(CO)[C@@H]5CC[C@]43C)[C@H]12
Activity (Hepatocyte [24]): 58.3%

CCOC(=O)CNC(=O)[C@]12CC[C@@H](C)[C@H](C)[C@H]1C1=CC[C@@H]3[C@@]4(C)C[C@@H](OC(C)=O)[C@H](OC(C)=O)[C@@](C)(COC(C)=O)[C@@H]4CC[C@@]3(C)[C@]1(C)CC2
IC50 (KB): 1.39 µM
IC50 (HepG2 [25]): 1.99 µM
IC50 (SK-LU-1): 1.39 µM
